# Entries after “also recorded” stand apart in the source; their conditions may differ.
# Legend:
# [1] = Microstructural and crystallographic analysis of the synthesized minerals (SEM, TEM, XRD); conditions: for mineral morphology: SEM/TEM of minerals formed in solution with peptide; for crystal phase of the mineral formed (XRD): XRD of minerals formed in solution; for amount of radiating crystalline blade-like particles emanating from the spherulites: compared to weak binders and no peptide control
# Protocol: (§1) For the mineralization experiments, mineralization solutions containing 24 mM Ca^2+ and 14.4 mM β-GP and 0.4 mM peptide was prepared in 25 mM Tris-HCl buffer (pH 7.4). A mineralization solution containing no peptide was prepared as the negative control. Mineralization reactions were commenced by adding bacterial AP to the solution at a final concentration of 1.4×10^−6 g/mL. Subsequent mineral formation kinetics was monitored by continuous measuring of absorbance at 820 nm wave length using a Tecan Safire microplate reader (Tecan Trading AG, Switzerland) as well as by periodic assays of calcium ions throughout the reaction. For periodic assays of calcium and phosphate, 10 μL of the reaction solution was collected at 0.25-, 0.5-, 1- and 1.5-hr. The calcium concentration in the solutions was determined using QuantiChrome Calcium Assay Kit (Bioassays, U.S.A.). All mineralization reactions were carried out at 37° C. Samples for electron microscopy analysis were prepared by placing a 10 μL aliquot from the reaction solution onto a carbon coated TEM grid. After 1 min, liquid on the TEM grid was carefully wicked away and the grids were vacuum-dried for 5 min. The dried grids were stored in a desiccated container until analyzed. SEM imaging was performed at 10 kV using a JSM 7000F (JEOL, Japan) SEM in secondary electron imaging mode. TEM imaging and electron diffraction analysis were performed using an EMS 420T TEM (FEI, Inc., USA; formerly Philips, The Netherlands) operated at 120 kV.
# Binding analysis via QCM = conditions: for Kd: binding to HAp, read-out: KD (dissociation constant); for binding affinity to HAp (in words): compared with ADP1, ADP2, ADP4, ADP7
# Protocol: Calcium phosphate coated QCM electrodes were purchased commercially. (Q-Sense, Sweden) The diameter of the crystals and electrodes were 8.8 mm and 5.0 mm, respectively. […] A 12 V DC current was applied to the oscillator circuit to drive the crystal, and the frequency was measured with a Hewlett-Packard 53131A frequency counter sampling at 225 Hz (Universal Counter, Agilent Technologies). After the crystal was mounted in the cell, they were cleaned and dried with high-purity nitrogen gas and used immediately. To establish a stable baseline, a sufficient amount of buffer solution was introduced into the cell before adding the peptide. The frequency change of the crystal in pure buffer solution was recorded for 30 to 60 minutes. After this, the desired amount of ADPs was introduced into the cell and the frequency change was recorded continuously.
# The dissociation constants (KD) of the peptides were determined. The KD is an equilibrium constant that represents the concentration necessary to achieve 50% surface coverage. […] (FIG. 2a, Table 1)
# [2] = In vitro solution biomineralization, alkaline phosphatase based mineralization model; format: biochemical; conditions: for mineralization trend (kinetics): 0.4 mM peptide, 24 mM Ca2+, 14.4 mM β-GP, 37° C., initial 90 minutes; for available free Ca2+ consumed: at the end of the 90 minutes
# Protocol: An alkaline phosphatase (AP) based mineralization model was used as described before to investigate the mineralization behaviors of the peptides (22) (see Supporting Information for details). […]
# as §1
# [3] = Ex vivo re-mineralization of tooth root; set-up: species or system human
# Protocol: The cementum-root stock blocks were prepared from single rooted, extracted adult teeth collected at the University of Washington Dental School clinics. No individual identifiers were used and the use of such material complied with the Institutional Review Board guidelines. The teeth were kept in 70% ethanol solution at 4° C. until the specimens were prepared. Cylindrical blocks of 4 mm diameter were cut from the acellular cementum, close to the cementoenamel junction using a trephine bur. The teeth were kept immersed in 70% ethanol-phosphate buffered saline (PBS) during the cutting to prevent heat damage due to friction. The cut cylindrical blocks were cleaned of contaminating material using PBS and demineralized with 35% phosphoric acid gel for 10 seconds. The specimens were stored in 70% ethanol-PBS solution at 4° C. until used.
# Prior to coating the specimens with the peptide, the previously cut cylindrical blocks were rehydrated and equilibrated for 2 hours in 24 mM Tris-HCl buffer, pH 7.4. The lyophilized ADP was dissolved in 24 mM Tris-HCl buffer, pH 7.4 to a final concentration of 0.4 mM. A 50 μl drop of the ADP solution was dropped on top of the specimens and left on the specimen for 10 minutes at room temperature in a water saturated chamber to prevent evaporation. Control specimens were identically prepared only by dropping 50 μl of buffer alone. At the end of 10 minutes, the samples were rinsed twice with deionized water. Fluorescent microscopy analysis was performed with fluorescein isothiocyanate-labeled ADP (fADP).
# Solutions of 9.6 mM CaCl2 and 5.6 mM (PO4)^−3, a mixture of NaH2PO4—H2O and Na2HPO4-7H20, were prepared in 24 mM Tris-HCl buffer, pH 7.4. The peptide coated and non-coated control specimens were placed in 300 μl of Ca^+2 solution and an equal volume of (PO4)^−3 solution was added to achieve a final concentration of 4.8 mM of Ca^+2 and 2.8 mM of (PO4)^−3. The specimens were incubated in the mineralization solution for 2 hours at 37° C. in a water saturated atmosphere, removed from the mineralization solution and rinsed with 24 mM Tris-HCl buffer, pH 7.4. […]
Kd (Binding analysis via QCM),binding affinity to HAp (in words) (Binding analysis via QCM),mineralization trend (kinetics) [2],available free Ca2+ consumed [2],Molecule,mineral morphology [1],crystal phase of the mineral formed (XRD) [1],amount of radiating crystalline blade-like particles emanating from the spherulites [1],Ca/P ratio ([3]; EDX spectra of the cementomimetic layer),thickness of mineral layer ([3]; SEM and TEM cross-section),elemental composition by EDS ([3]; peptide coated samples after 2 hours),crystal phase of the mineral formed (XRD) ([1]; listed as amelogenin)
6400 nM,lower,–,–,WPATDKTKREEVD [ADP3],spherulitic particles,–,–,–,–,–,–
3140 nM,lower,–,–,PAQQPVAPQQPMMP [ADP8],spherulitic particles,–,–,–,–,–,–
6250 nM,lower,–,–,LPPLFSMPLSPILPELPLEAWPAT [ADP6],spherulitic particles,–,–,–,–,–,–
1610 nM,–,–,–,VPGHHSMTPTQH [ADP2],spherulitic particles,none of the other strong binders,slightly higher,–,–,–,–
1400 nM,–,–,–,HTLQPHHHLPVV [ADP1],spherulitic particles,none of the other strong binders,slightly higher,–,–,–,–
1150 nM,–,slow mineralization trend,–,HPPSHTLQPHHHLPVVPAQQPVAPQQPMMPVPGHHSMTPTQH [ADP7],Needle like nano-crystals,crystalline HAp; also recorded: HA precipitation was only observed in ADP7; also recorded: characteristic peaks belonging to the HAp crystal structure,–,–,–,–,–
1430 nM,–,–,–,HPPSHTLQPHHHLPVV [ADP4],spherulitic particles,none of the other strong binders,slightly higher,–,–,–,–
50000 nM,lower,fast mineralization trend,more than half,PGYINLSYEKSHSQAINTDRTA [ADP5],much smaller spherulites,–,–,1.67,10-15 μm,substantial Ca and P peaks,–
–,–,fast mineralization trend,more than half,"rM180: recombinant mouse 180 amino acid long amelogenin (protein, UniProt P63277 17-210, looked up) Amelogenin, X isoform: MPLPPHPGSPGYINLSYEKSHSQAINTDRTALVLTPLKWYQSMIRQPYPSYGYEPMGGWLHHQIIPVLSQQHPPSHTLQPHHHLPVVPAQQPVAPQQPMMPVPGHHSMTPTQHHQPNIPPSAQQPFQQPFQPQAIPPQSHQPMQPQSPLHPMQPLAPQPPLPPLFSMQPLSPILPELPLEAWPATDKTKREEVD",Needle like nano-crystals,crystalline HAp,–,–,–,–,characteristic peaks belonging to the HAp crystal structure
